In patent publication US8575211B2, “Synergistic combination of analgesic compounds” (Biocodex, priority 2008, dated 2013):
Structures can show the parent of a compound that is named as a salt. Where two headings read alike, the source gives them in different places.

What was measured:
[1] = tested on: abdominal cramps induced in mice by acetic acid; assay: abdominal cramps induced in mice by intraperitoneal acetic acid, products by the subcutaneous route; type: in vivo; conditions: for ED50: Mus musculus, product alone, subcutaneous, 30 min before acetic acid i.p., read-out: ED50 (dose producing 50% reduction in the number of cramps)
Method: The analgesic effect of a nefopam-ibuprofen combination was studied in the model of abdominal cramps induced in mice by the intraperitoneal administration of acetic acid. This model of pain induced by a chemical substance corresponds to acute, visceral, inflammatory pain. Male CD1 mice (C. River breed) weighing from 25 to 30 grams are used after an acclimatization of at least 7 days in the animal facility (t°=22±2; hygrometry=50±20%; food […]-darkness: […])). On the day of the experiment, the non-fasting mice are weighed, marked and divided at random into groups of 10. The acetic acid solution (Sigma) is prepared at 0.6% (0.1 ml/10 g) i.e. 60 mg of acetic acid in 10 ml of NaCl at 0.9%. At t=0, the mouse receives the product under study or the carrier liquid by the subcutaneous route (0.1 ml/10 g). At t=30 minutes, the acetic acid is injected by the intraperitoneal route (0.1 ml/10 g). A count is taken of the number of abdominal cramps from 5 to 20 minutes after the injection of acetic acid. Clear abdominal cramps characterized by stretching of the hind paws and/or hollowing of the flanks with writhing are regarded as positive. Nefopam hydrochloride (Biocodex, lot 38) (referred to hereinafter simply as nefopam) is dissolved in distilled water or in NaCl at 0.9%. The ibuprofen (Sigma, ref 1-4883) is suspended in Tween 80 at 1%. The test used is a variance analysis based on 3 groups and a Student's t test for 2 groups. The treated group(s) that differ(s) from the control group is (are) then determined. The effective doses for 50% antinociceptive effect (ED50) are calculated using the PharmToolsPro program (version 1.1.27, […] Group Inc.) in accordance with the Tallarida (2000) method Drugs synergism and dose-effect data analysis CRC Press). At least 10 mice are used for each dose, and at least 3 doses are used to determine the dose-response curve. The dose that produces 50% antinociceptive effect (50% reduction in the number of cramps) is calculated by a standard linear regression analysis of the dose-response curve. The interaction is evaluated by an isobolographic analysis of the co-administration of a combination of doses at a fixed ratio according to Tallarida (2000) op. cit., Tallarida et al. (1989) Life Sci. 45:947-961 and Tallarida et al. (1997) Life Sci. 61:PL417-PL425. The isobologram is constructed by joining the ED50 of the ibuprofen with that of the nefopam in order to obtain the additivity line. The ED50 of the combination is determined by linear regression analysis of the dose-response curve and it is compared by at test with a theoretical additive ED50 obtained using the PharmToolsPro software.

[2] = tested on: abdominal cramps induced in mice by acetic acid; conditions: oral route, cited from earlier work

For `CN1CCOC(c2ccccc2)c2ccccc2C1` (stereo not shown) [Nefopam, Nefopam hydrochloride], the ED50 [1] was 2.4 ± 0.215 mg/kg, the “% variation of number of cramps” value ([1]; nefopam 0.3 mg/kg s.c.) was −9% and the “Number of cramps (mean ± sem)” value ([1]; nefopam 0.3 mg/kg s.c.) was 33.6 ± 3.8. For the same molecule, the “% variation of number of cramps” value ([1]; nefopam 1.0 mg/kg s.c.) was −25%, the “Number of cramps (mean ± sem)” value ([1]; nefopam 1.0 mg/kg s.c.) was 28.0 ± 6.3 and the “% variation of number of cramps” value ([1]; nefopam 3.0 mg/kg s.c.) was −55%. The “Number of cramps (mean ± sem)” value ([1]; nefopam 3.0 mg/kg s.c.) was 16.7 ± 2.0, the “% variation of number of cramps” value ([1]; nefopam 10.0 mg/kg s.c.) was −81% and the “Number of cramps (mean ± sem)” value ([1]; nefopam 10.0 mg/kg s.c.) was 7.1 ± 1.7. The “% variation of number of cramps” value ([1]; nefopam 20.0 mg/kg s.c.) was −98% and the “Number of cramps (mean ± sem)” value ([1]; nefopam 20.0 mg/kg s.c.) was 0.6 ± 0.3.
In the case of `CC(C)Cc1ccc(C(C)C(=O)O)cc1` (stereo not shown) [Ibuprofen, ibuprofen], the ED50 [1] is reported as 18.6 ± 2.4 mg/kg, the “% variation of number of cramps” value ([1]; ibuprofen 1 mg/kg s.c.) is reported as “+7%” and the “Number of cramps (mean ± sem)” value ([1]; ibuprofen 1 mg/kg s.c.) is reported as 40.2 ± 3.2. For the same molecule, the “% variation of number of cramps” value ([1]; ibuprofen 3 mg/kg s.c.) was “+14%”, the “Number of cramps (mean ± sem)” value ([1]; ibuprofen 3 mg/kg s.c.) was 43.0 ± 6.6 and the “% variation of number of cramps” value ([1]; ibuprofen 10 mg/kg s.c.) was −29%. The “Number of cramps (mean ± sem)” value ([1]; ibuprofen 10 mg/kg s.c.) was 26.8 ± 3.9, the “% variation of number of cramps” value ([1]; ibuprofen 20 mg/kg s.c.) was −41% and the “Number of cramps (mean ± sem)” value ([1]; ibuprofen 20 mg/kg s.c.) was 22.0 ± 2.0. The “% variation of number of cramps” value ([1]; ibuprofen 30 mg/kg s.c.) was −68%, the “Number of cramps (mean ± sem)” value ([1]; ibuprofen 30 mg/kg s.c.) was 12.1 ± 2.7 and the “% variation of number of cramps” value ([1]; ibuprofen 50 mg/kg s.c.) was −84%. For the same molecule, the “Number of cramps (mean ± sem)” value ([1]; ibuprofen 50 mg/kg s.c.) was 5.9 ± 1.3, the “% variation of number of cramps” value ([1]; ibuprofen 100 mg/kg s.c.) was −84% and the “Number of cramps (mean ± sem)” value ([1]; ibuprofen 100 mg/kg s.c.) was 6.0 ± 1.4. For the same molecule, the “dose from which antinociceptive activity is significant” value ([2]; Dolezal & Kusiak (2002)) was ≥ 30 mg/kg and the ED50 ([2]; Jones et al. (2005)) was 95 mg/kg.
